Legend:
p38α = p38α knock-down in mouse macrophage cell line RAW264.7, Western blotting; assay type: cell-based
[1] = mouse, in vivo
Experimental: For the aerosol studies, the protocol described above was slightly modified. Male Balb/c mice were injected IP with OVA (20 μg) in aluminum hydroxide on days 0 and 14. Aerosol dosing was performed with nebulized sterile saline, antisense oligonucleotide or mismatched control oligonucleotide using 25, 125 and 250 μg/ml solutions (5 mg/kg) for 30 min. on days 14-20 in a closed chamber. Aerosol lung challenge was carried out with nebulized saline or 1% OVA for 20 min. on days 18, 19 and 20. BAL fluid was collected at 24 hr post-last lung challenge (cell differentials) or at 2-12 h post-challenge (cytokine analysis). AHR was measured 24 hours after OVA challenge. Mice were exposed to aerosolized methacholine 24 hr post-last lung challenge from 2-80 mg/ml for 3 min. until a 200% increase in Penh was achieved.

[2] = tested on: ovalbumin (OVA)-induced airway hyperresponsiveness; assay: Mouse model of allergic inflammation (OVA), intratracheal oligonucleotide administration; assay type: in vivo; settings: OVA mice
Experimental: In the mouse model of allergic inflammation, mice were sensitized and challenged with aerosolized chicken ovalbumin (OVA). Airway responsiveness was assessed by inducing airflow obstruction with a methacholine aerosol using a noninvasive method. This methodology utilized unrestrained conscious mice that are placed into the main chamber of a plthysmograph (Buxco Electronics, Inc., Troy, N.Y.). Pressure differences between this chamber and a reference chamber were used to extrapolate minute volume, breathing frequency and enhanced pause (Penh). […] This parameter closely correlates with lung resistance as measured by traditional invasive techniques using ventilated animals (Hamelmann et al., 1997). […]
For intratracheal administration of ISIS 101757, female Balb/c mice (Charles Rivers Laboratory, Taconic Farms, N.Y.) were maintained in micro-isolator cages housed in a specific pathogen-free (SPF) facility. […] Animals were analyzed about 24 hours following the last nebulization using the Buxco electronics Biosystem. Lung function (Penh), lung histology (cell infiltration and mucus production), target mRNA reduction in the lung, inflammation (BAL cell type & number, cytokine levels), spleen weight and serum AST/ALT were determined. […]

## ISIS 101757: antisense oligonucleotide targeted to mouse p38α, SEQ ID NO 177; 2′-MOE gapmer, all phosphorothioate linkages (antisense AGGTGCTCAGGACTCCATTT; all phosphorothioate, sugars by position and methylation of C not given here; 2'-MOE gapmer)
p38α
  p38α knock-down effect: confirmed
[1]
  Oligonucleotide levels in lung tissue sufficient to achieve the pharmacological effects: up to 1 μg/g
[2]
  Penh response to methacholine (50 mg/ml) challenge: dose-dependent inhibition
